The source of these data is paper PMC11945486, “TAS1R2/TAS1R3 Single-Nucleotide Polymorphisms Affect Sweet Taste Receptor Activation by Sweeteners: The SWEET Project” (Nutrients, 2025).

For orientation: EC50 means the concentration that produces a half-maximal response.

No end group written: not given here.

The assay addresses T1, human TAS1R2-R317G/TAS1R3-WT (Homo sapiens, UniProt Q7RTX0+Q8TE23, R317G).
T1 construct: expressed in transfected cells; host or cells: HEK293T-Gα16gust44
T1 sequence (Q8TE23 20-839 R317G): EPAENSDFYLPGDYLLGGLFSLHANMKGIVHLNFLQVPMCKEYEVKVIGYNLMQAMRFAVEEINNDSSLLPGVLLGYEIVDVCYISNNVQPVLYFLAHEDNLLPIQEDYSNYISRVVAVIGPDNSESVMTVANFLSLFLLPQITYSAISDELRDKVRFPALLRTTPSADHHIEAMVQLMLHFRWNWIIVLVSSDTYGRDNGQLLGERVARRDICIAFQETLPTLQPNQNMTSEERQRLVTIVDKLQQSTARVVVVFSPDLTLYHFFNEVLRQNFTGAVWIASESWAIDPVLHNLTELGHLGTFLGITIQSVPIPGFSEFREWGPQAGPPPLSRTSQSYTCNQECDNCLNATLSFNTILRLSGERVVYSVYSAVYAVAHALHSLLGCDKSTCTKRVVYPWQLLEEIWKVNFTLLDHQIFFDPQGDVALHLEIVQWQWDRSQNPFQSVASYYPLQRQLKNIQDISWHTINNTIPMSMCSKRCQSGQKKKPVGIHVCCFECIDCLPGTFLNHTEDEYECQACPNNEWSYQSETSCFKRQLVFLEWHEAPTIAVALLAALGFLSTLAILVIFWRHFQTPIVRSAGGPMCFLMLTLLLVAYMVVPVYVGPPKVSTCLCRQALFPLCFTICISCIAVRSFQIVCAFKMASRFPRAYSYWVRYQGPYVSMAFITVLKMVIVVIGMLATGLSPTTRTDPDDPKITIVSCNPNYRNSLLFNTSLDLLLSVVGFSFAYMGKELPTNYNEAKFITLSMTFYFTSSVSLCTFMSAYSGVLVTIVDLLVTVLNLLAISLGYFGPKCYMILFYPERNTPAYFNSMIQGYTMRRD
T1 sequence (Q7RTX0 21-852): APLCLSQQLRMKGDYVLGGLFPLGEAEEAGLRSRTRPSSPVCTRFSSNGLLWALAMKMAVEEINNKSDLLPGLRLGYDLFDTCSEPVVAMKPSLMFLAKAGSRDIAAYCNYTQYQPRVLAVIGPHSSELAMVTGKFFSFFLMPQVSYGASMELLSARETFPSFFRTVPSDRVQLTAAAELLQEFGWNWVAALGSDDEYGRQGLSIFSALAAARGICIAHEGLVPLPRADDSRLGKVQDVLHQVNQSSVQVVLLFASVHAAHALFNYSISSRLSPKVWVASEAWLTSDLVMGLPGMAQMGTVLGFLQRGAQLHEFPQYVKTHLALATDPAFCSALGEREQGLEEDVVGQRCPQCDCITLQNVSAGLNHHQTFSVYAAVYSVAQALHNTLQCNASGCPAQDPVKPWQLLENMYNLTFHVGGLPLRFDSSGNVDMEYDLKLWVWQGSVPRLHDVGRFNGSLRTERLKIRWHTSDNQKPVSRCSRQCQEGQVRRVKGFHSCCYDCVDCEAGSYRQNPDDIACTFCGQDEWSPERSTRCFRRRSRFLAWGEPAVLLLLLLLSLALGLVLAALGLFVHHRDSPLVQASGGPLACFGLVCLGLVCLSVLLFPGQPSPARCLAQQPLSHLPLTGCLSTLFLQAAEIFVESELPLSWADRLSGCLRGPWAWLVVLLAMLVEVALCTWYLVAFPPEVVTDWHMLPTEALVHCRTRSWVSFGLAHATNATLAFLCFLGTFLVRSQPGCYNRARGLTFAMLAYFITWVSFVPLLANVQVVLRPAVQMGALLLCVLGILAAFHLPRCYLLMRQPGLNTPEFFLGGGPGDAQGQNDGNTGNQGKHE
The experiment in a line: Calcium mobilisation assay, TAS1R2 variant R317G with TAS1R3-WT. In kind it is cell-based. The settings on record: for Max ΔF/F0: maximal signal amplitude. The text has this:
The coding sequences for TAS1R2 and TAS1R3 were commercially synthesised, and the human codon was optimised for expression in human cells. The coding sequences of human TAS1R2 and TAS1R3 were subcloned and inserted into the mammalian expression vectors pcDNA6/myc-HisA and pcDNA4/myc-HisA (Invitrogen; Thermo Fisher Scientific; Illkirch, France) between the EcoRI and NotI restriction sites, generating the plasmids pcDNA6-TAS1R2 and pcDNA4-TAS1R3, respectively. To increase protein expression in mammalian cells, an upstream start codon was used, which was a sequence called MAX, corresponding to the QBI SP163 element also described in pcDNA4-HisMax (Invitrogen; Thermo Fisher Scientific; Illkirch, France). To measure the expression level of the receptor by immunohistochemistry, we used the FLAG sequence ([…]) in the C-terminal position, which encodes the FLAG tag epitope. SNP variants of TAS1R2 and TAS1R3 were constructed based on […], respectively, using site-directed mutagenesis (Genewiz; Leipzig, Germany).
The HEK293T cells were kindly provided by Jay P. Slack (Givaudan Flavors Corporation; Cincinnati, OH, USA). HEK293T cells stably transfected with Gα16gust44 [43, 67] were seeded in poly-D-lysine-coated clear-bottom black 96-well plates (0.35 × 10^5 cells/well) in high-glucose DMEM supplemented with 2 mM GlutaMAX, 10% dialysed foetal bovine serum with penicillin/streptomycin and G418 (400 μg/mL) at 37 °C and 6.3% CO2 in a humidified atmosphere as previously reported. […] As a negative control, HEK293T cells were mock-transfected with the empty expression vector. After a further 24 h of incubation, the HEK293T cells were washed with C1 buffer (130 mM NaCl, 5 mM KCl, 10 mM HEPES pH 7.4 and 2 mM CaCl2). The 96-well plates containing the cells were then stimulated with sweet-tasting compounds. […] Different concentration ranges were tested depending on the sweet compound injected. The Ca^2+ changes were expressed as fractional changes in fluorescent light intensity: ΔF/F = (F − F0)/F0, where F was the fluorescent light intensity at each point, and F0 was the value of emitted fluorescent light prior to stimulus application. To calculate dose–response relationships, the changes in fluorescence upon stimulus application were averaged, mock-subtracted and baseline-corrected. The dose–response data obtained were adjusted using a 4-parameter logistic equation. The half-maximal effective concentrations (EC50 values) and maximal signal amplitudes were calculated using SigmaPlot software (version 15.0) (Systat Software; San Jose, CA, USA).
For in vitro calcium mobilisation assay performed on hTAS1R2-SNPs, hTAS1R3-SNPs and mTAS1R3-I60T, 6 to 7 concentrations were tested for each sweet compound, plus buffer alone. All concentration–receptor combinations were measured in duplicate, and each experiment was repeated at least 4 times (8 wells/concentration). Results were expressed for each concentration as ΔF/F mean ± SEM and represented as dose–response curves.
A general note: A change in cytosolic calcium serves as a functional read-out for many receptors and channels.

As to `C=C(C)[C@@H]1CC=C(/C=N/O)CC1` [Perillartine, perillartine], the concentration for a half-maximal effect (EC50) is 20.7 ± 0.6 µM, the “R1 = Variant EC50/WT EC50” value is 1.2 and the “Max ΔF/F0” value worked out at 1.53 ± 0.03.
As to `O=S(=O)(O)NC1CCCCC1` [Cyclamate, cyclamate], the half-maximal effective concentration (EC50) came out at 2160 ± 44 µM.
As to `C=C1C[C@@]23CC[C@H]4[C@@](C)(CCC[C@@]4(C)C(=O)O[C@@H]4O[C@H](CO)[C@@H](O)[C@H](O[C@@H]5O[C@H](CO)[C@@H](O)[C@H](O)[C@H]5O)[C@H]4O[C@@H]4O[C@H](CO)[C@@H](O)[C@H](O)[C@H]4O)[C@@H]2CC[C@]1(O[C@@H]1O[C@H](CO)[C@@H](O)[C@H](O[C@@H]2O[C@H](CO)[C@@H](O)[C@H](O)[C@H]2O)[C@H]1O[C@@H]1O[C@H](CO)[C@@H](O)[C@H](O)[C@H]1O)C3` [Rebaudioside M, rebaudioside M], the EC50 came out at 20.4 ± 0.4 µM, the “R1 = Variant EC50/WT EC50” value came out at 1.2 and the “Max ΔF/F0” value turned out to be 1.23 ± 0.01.
For `OC[C@H]1O[C@H](O[C@]2(CCl)O[C@H](CCl)[C@@H](O)[C@@H]2O)[C@H](O)[C@@H](O)[C@H]1Cl` [Sucralose], in that order: 62 ± 11 µM, 0.7 and 0.80 ± 0.05.
For the molecule `CC1=CC(=O)NS(=O)(=O)O1` [Acesulfame K, acesulfame K], the concentration for a half-maximal effect (EC50) amounted to 465 ± 55 µM, the “R1 = Variant EC50/WT EC50” value was determined as 0.7 and the “Max ΔF/F0” value worked out at 0.46 ± 0.02.
Consider “brazzein (QDKCKKVYENYPVSKCQLANQCNYDCKLDKHARSGECFYDEKRNLQCICDYCEY; ends and bridges not checked; cysteine pairing not given here; UniProt P56552 1-54, looked up) [sweet-tasting protein obtained by recombinant production using the yeast Pichia pastoris]”, for which the “R1 = Variant EC50/WT EC50” value turned out to be 1.3 and the “Max ΔF/F0” value is 1.18 ± 0.03.
Taken in the same sequence, the figures for thaumatin were 1.4 and 1.16 ± 0.02.
With `COC(=O)[C@H](Cc1ccccc1)NC(=O)[C@H](CC(=O)O)NCCC(C)(C)C` [Neotame], the EC50 came out at 0.73 ± 0.13 µM, the “R1 = Variant EC50/WT EC50” value was 0.9 and the “Max ΔF/F0” value came out at 0.56 ± 0.03.
Taken in the same sequence, the figures for `C[C@H](CC[C@@H](O[C@@H]1O[C@H](CO[C@@H]2O[C@H](CO)[C@@H](O)[C@H](O)[C@H]2O)[C@@H](O)[C@H](O)[C@H]1O[C@@H]1O[C@H](CO)[C@@H](O)[C@H](O)[C@H]1O)C(C)(C)O)[C@H]1CC[C@@]2(C)[C@@H]3CC=C4[C@@H](CC[C@H](O[C@@H]5O[C@H](CO[C@@H]6O[C@H](CO)[C@@H](O)[C@H](O)[C@H]6O)[C@@H](O)[C@H](O)[C@H]5O)C4(C)C)[C@]3(C)[C@H](O)C[C@]12C` [Mogroside V, mogroside V] were 18.4 ± 1 µM, 1.1 and 1.34 ± 0.03.
Take `COc1ccc(CCC(=O)c2c(O)cc(O[C@@H]3O[C@H](CO)[C@@H](O)[C@H](O)[C@H]3O[C@@H]3O[C@@H](C)[C@H](O)[C@@H](O)[C@H]3O)cc2O)cc1O` [NHDC, neohesperidin dihydrochalcone]: the EC50 worked out at 97.1 ± 5 µM, the “R1 = Variant EC50/WT EC50” value worked out at 1.3 and the “Max ΔF/F0” value was 0.85 ± 0.02.

B1: thaumatin (protein)
chain: ATFEIVNRCSYTVWAAASKGDAALDAGGRQLNSGESWTINVEPGTKGGKIWARTDCYFDDSGSGICKTGDCGGLLRCKRFGRPPTTLAEFSLNQYGKDYIDISNIKGFNVPMDFSPTTRGCRGVRCAADIVGQCPAKLKAPGGGCNDACTVFQTSEYCCTTGKCGPTEYSRFFKRLCPDAFSYVLDKPTTVTCPGSSNYRVTFCPTA
modifications: Eight disulfides
notes: sweet-tasting plant protein, E957
B1: the EC50 was determined as 10.9 ± 0.3 µM.
